# Results from US20220265629A1, “TREATMENT OF SYSTOLIC DYSFUNCTION AND HEART FAILURE WITH REDUCED EJECTION FRACTION WITH THE COMPOUND (R)-4-(1-((3-(DIFLUOROMETHYL)-1-METHYL-1H-PYRAZOL-4-YL)SULFONYL)-1-FLUOROETHYL)-N-(ISOXAZOL-3-YL)PIPERIDINE-1-CARBOXAMIDE” (MyoKardia, Inc., priority 2019, published 2022).
# Where two headings read alike, the source gives them in different places.
# Test: Single ascending oral dose study in healthy volunteers: plasma pharmacokinetics
# Type: in vivo, human
# Settings: plasma, oral; for concentration at 6 h / concentration at 12 h / concentration at 24 h / concentration at 48 h / concentration at 72 h / AUC(0-t) / AUC(0-inf) / Cmax / half-life / MRT / Tmax / Vd/F: human; for concentration at 12 h: 12 Hours Postdose; for concentration at 24 h: 24 Hours Postdose; for concentration at 48 h: 48 Hours Postdose; for concentration at 72 h: 72 Hours Postdose
# Excerpt: This example describes the first-in-human study of Compound I. Based on its mechanism of action, Compound I may offer a targeted therapy for patients with DCM caused by genetic or nongenetic mechanisms. The study was a randomized, double-blind, placebo-controlled, sequential group, single-ascending (oral) close study in healthy subjects aged 18-55 years. Eight dosing cohorts, each comprising eight healthy subjects, were enrolled. Within each cohort, subjects were randomized 6:2 to Compound I:placebo.
# Subjects were resident at the clinical site for up to 5 days and 4 nights, from Day −1 (the day before dosing) to Day 4, and received a single dose of Compound I or placebo on Day 1. ECG telemetry was initiated 1 hour preclose and continued through 48 hours postclose (Day 3). Any subject with a preclose resting HR≥80 beats per minute was considered ineligible and not treated. […] Subjects returned for a safety follow-up visit 7 days (±1 day) after dosing.
# All randomized study subjects received either Compound I or matching placebo as a single oral dose after a fasting period of at least 6 hours. Compound I drug substance is a crystalline, free-base, synthetic molecule with a molecular weight of 435.4 g/mol.
# Compound I was provided as a powder for oral suspension. Placebo was provided as calcium carbonate powder. Both treatments were closed orally as a suspension. The suspension was made using Ora-Plus® suspending vehicle (Perrigo) and a cherry syrup flavoring vehicle (Humco), mixed 50% to 50%. The suspension was followed by approximately 100 mL water. The suspension was made up within 14 days from the time in which it was closed which was consistent with the stability data on the suspension. The suspension was made up so the volume administered to the subjects who received Compound I was the same at 20 mL.
# Each subject received a close according to the cohort in which they were enrolled. Cohorts were enrolled sequentially, with each cohort receiving an escalated dose of Compound I. The closes administered were 3 mg, 10 mg, 25 mg, 50 mg, 100 mg, 175 mg, 350 mg, and 525 mg, respectively.
# The concentrations of Compound I in human plasma and urine were quantitated by high performance liquid chromatography with tandem mass spectrometric detection (LC MS/MS) (Biological sample analysis study report Alturas AD17-726). Plasma samples were extracted by protein precipitation with acetonitrile containing internal standard MYK-5654. The calibration curves were linear over concentration range of 0.500 to 1000 ng/mL with a lower limit of quantification (LLOQ) of 0.500 ng/mL.
# The PK Population included all subjects who received Compound I. Blood samples were collected for PK assessments. The actual timing of the samples may have been modified and/or up to an additional 2 samples may have been requested by the SRC after review of the data from previous cohorts. It was important that PK sampling occurred as closely as possible to the scheduled time (±10%). Both blood and urine samples were used for PK assessments.
# In addition, for subjects who received placebo, a single plasma sample near the predicted tmax of Compound I was evaluated to confirm the lack of circulating Compound I. Plasma concentration data for Compound I was summarized using descriptive statistics, including mean, standard deviation (SD), median, minimum, and maximum values, and percent coefficient of variation. Other PK parameters included (but were not limited to) Cmax, tmax, AUC, t1/2, and MRT. Additionally, the apparent terminal-phase terminal half-life was calculated. The close proportionality of AUC and Cmax was explored.
# [1] = 350 mg, 350 mg, read-out: Plasma concentration, Geometric Mean
# [2] = 350 mg, 350 mg, read-out: Plasma concentration, Mean
# [3] = 350 mg, 350 mg, read-out: Plasma concentration, Median
# [4] = 525 mg, 525 mg, read-out: Plasma concentration, Geometric Mean
# [5] = 525 mg, 525 mg, read-out: Plasma concentration, Mean
# [6] = 525 mg, 525 mg, read-out: Plasma concentration, Median
# [7] = 350 mg + 525 mg, read-out: Plasma concentration, Geometric Mean
# [8] = 350 mg + 525 mg, read-out: Plasma concentration, Mean
# [9] = 350 mg + 525 mg, read-out: Plasma concentration, Median
structure (smiles),measurement,setting,value
"Cn1cc(S(=O)(=O)[C@@](C)(F)C2CCN(C(=O)Nc3ccon3)CC2)c(C(F)F)n1 [Compound I, (R)-4-(1-((3-(difluoromethyl)-1-methyl-1H-pyrazol-4-yl)sulfonyl)-1-fluoroethyl)-N-(isoxazol-3-yl)piperidine-1-carboxamide]",concentration at 6 h,"350 mg, 6 Hours Postdose, 350 mg, read-out: Plasma concentration, Mean",2660 ng/mL
same,concentration at 6 h,"350 mg, 6 Hours Postdose, 350 mg, read-out: Plasma concentration, Median",2550 ng/mL
same,concentration at 12 h,[1],2090 ng/mL
same,concentration at 12 h,[2],2140 ng/mL
same,concentration at 12 h,[3],2120 ng/mL
same,concentration at 24 h,[1],1280 ng/mL
same,concentration at 24 h,[2],1320 ng/mL
same,concentration at 24 h,[3],1340 ng/mL
same,concentration at 48 h,[1],329 ng/mL
same,concentration at 48 h,[2],373 ng/mL
same,concentration at 48 h,[3],350 ng/mL
same,concentration at 72 h,[1],101 ng/mL
same,concentration at 72 h,[2],128 ng/mL
same,concentration at 72 h,[3],111 ng/mL
same,AUC(0-t),"350 mg, read-out: AUC0-24, Geometric Mean",44700 ng·h/mL
same,AUC(0-t),"350 mg, read-out: AUC0-24, Mean",45600 ng·h/mL
same,AUC(0-t),"350 mg, read-out: AUC0-24, Median",45000 ng·h/mL
same,AUC(0-t),"350 mg, read-out: AUC0-48, Geometric Mean",64200 ng·h/mL
same,AUC(0-t),"350 mg, read-out: AUC0-48, Mean",65900 ng·h/mL
same,AUC(0-t),"350 mg, read-out: AUC0-48, Median",66400 ng·h/mL
same,AUC(0-t),"350 mg, read-out: AUC0-last, Geometric Mean",73200 ng·h/mL
same,AUC(0-t),"350 mg, read-out: AUC0-last, Mean",76300 ng·h/mL
same,AUC(0-t),"350 mg, read-out: AUC0-last, Median",76200 ng·h/mL
same,AUC(0-inf),"350 mg, read-out: AUC0-∞, Geometric Mean",73600 ng·h/mL
same,AUC(0-inf),"350 mg, read-out: AUC0-∞, Mean",76700 ng·h/mL
same,AUC(0-inf),"350 mg, read-out: AUC0-∞, Median",76200 ng·h/mL
same,Cmax,"350 mg, read-out: Cmax, Geometric Mean",2790 ng/mL
same,Cmax,"350 mg, read-out: Cmax, Mean",2820 ng/mL
same,Cmax,"350 mg, read-out: Cmax, Median",2900 ng/mL
same,half-life,"350 mg, read-out: Half-Life Lambda Z, Geometric Mean (converted)",860 min
same,half-life,"350 mg, read-out: Half-Life Lambda Z, Mean (converted)",880 min
same,half-life,"350 mg, read-out: Half-Life Lambda Z, Median (converted)",872 min
same,MRT,"350 mg, read-out: Mean Residence Time, Geometric Mean",22.4 h
same,MRT,"350 mg, read-out: Mean Residence Time, Mean",22.8 h
same,MRT,"350 mg, read-out: Mean Residence Time, Median",22.7 h
same,Tmax,"350 mg, read-out: Tmax, Geometric Mean",4.84 h
same,Tmax,"350 mg, read-out: Tmax, Mean",4.95 h
same,Tmax,"350 mg, read-out: Tmax, Median",5 h
same,Vd/F,"350 mg, read-out: Vz/F, Geometric Mean",98.3 L
same,Vd/F,"350 mg, read-out: Vz/F, Mean",98.8 L
same,Vd/F,"350 mg, read-out: Vz/F, Median",98.4 L
same,concentration at 6 h,"525 mg, 6 Hours Postdose, 525 mg, read-out: Plasma concentration, Geometric Mean",2160 ng/mL
same,concentration at 6 h,"525 mg, 6 Hours Postdose, 525 mg, read-out: Plasma concentration, Mean",2220 ng/mL
same,concentration at 6 h,"525 mg, 6 Hours Postdose, 525 mg, read-out: Plasma concentration, Median",2220 ng/mL
same,concentration at 12 h,[4],1780 ng/mL
same,concentration at 12 h,[5],1840 ng/mL
same,concentration at 12 h,[6],1780 ng/mL
same,concentration at 24 h,[4],1190 ng/mL
same,concentration at 24 h,[5],1230 ng/mL
same,concentration at 24 h,[6],1180 ng/mL
same,concentration at 48 h,[4],420 ng/mL
same,concentration at 48 h,[5],465 ng/mL
same,concentration at 48 h,[6],426 ng/mL
same,concentration at 72 h,[4],116 ng/mL
same,concentration at 72 h,[5],147 ng/mL
same,concentration at 72 h,[6],122 ng/mL
same,AUC(0-t),"525 mg, read-out: AUC0-24, Geometric Mean",37500 ng·h/mL
same,AUC(0-t),"525 mg, read-out: AUC0-24, Mean",38500 ng·h/mL
same,AUC(0-t),"525 mg, read-out: AUC0-24, Median",38200 ng·h/mL
same,AUC(0-t),"525 mg, read-out: AUC0-48, Geometric Mean",57000 ng·h/mL
same,AUC(0-t),"525 mg, read-out: AUC0-48, Mean",58900 ng·h/mL
same,AUC(0-t),"525 mg, read-out: AUC0-48, Median",57400 ng·h/mL
same,AUC(0-t),"525 mg, read-out: AUC0-last, Geometric Mean",68100 ng·h/mL
same,AUC(0-t),"525 mg, read-out: AUC0-last, Mean",71700 ng·h/mL
same,AUC(0-t),"525 mg, read-out: AUC0-last, Median",68600 ng·h/mL
same,AUC(0-inf),"525 mg, read-out: AUC0-∞, Geometric Mean",68500 ng·h/mL
same,AUC(0-inf),"525 mg, read-out: AUC0-∞, Mean",72100 ng·h/mL
same,AUC(0-inf),"525 mg, read-out: AUC0-∞, Median",68800 ng·h/mL
same,Cmax,"525 mg, read-out: Cmax, Geometric Mean",2290 ng/mL
same,Cmax,"525 mg, read-out: Cmax, Mean",2350 ng/mL
same,Cmax,"525 mg, read-out: Cmax, Median",2240 ng/mL
same,half-life,"525 mg, read-out: Half-Life Lambda Z, Geometric Mean (converted)",882 min
same,half-life,"525 mg, read-out: Half-Life Lambda Z, Mean (converted)",904 min
same,half-life,"525 mg, read-out: Half-Life Lambda Z, Median (converted)",826 min
same,MRT,"525 mg, read-out: Mean Residence Time, Geometric Mean",25.4 h
same,MRT,"525 mg, read-out: Mean Residence Time, Mean",25.8 h
same,MRT,"525 mg, read-out: Mean Residence Time, Median",25 h
same,Tmax,"525 mg, read-out: Tmax, Geometric Mean",4.94 h
same,Tmax,"525 mg, read-out: Tmax, Mean",4.97 h
same,Tmax,"525 mg, read-out: Tmax, Median",5 h
same,Vd/F,"525 mg, read-out: Vz/F, Geometric Mean",162 L
same,Vd/F,"525 mg, read-out: Vz/F, Mean",166 L
same,Vd/F,"525 mg, read-out: Vz/F, Median",171 L
same,concentration at 6 h,"6 Hours Postdose, 350 mg + 525 mg, read-out: Plasma concentration, Geometric Mean",2380 ng/mL
same,concentration at 6 h,"6 Hours Postdose, 350 mg + 525 mg, read-out: Plasma concentration, Mean",2440 ng/mL
same,concentration at 6 h,"6 Hours Postdose, 350 mg + 525 mg, read-out: Plasma concentration, Median",2350 ng/mL
same,concentration at 12 h,[7],1930 ng/mL
same,concentration at 12 h,[8],1990 ng/mL
same,concentration at 12 h,[9],1860 ng/mL
same,concentration at 24 h,[7],1230 ng/mL
same,concentration at 24 h,[8],1280 ng/mL
same,concentration at 24 h,[9],1210 ng/mL
same,concentration at 48 h,[7],372 ng/mL
same,concentration at 48 h,[8],419 ng/mL
same,concentration at 48 h,[9],415 ng/mL
same,concentration at 72 h,[7],108 ng/mL
same,concentration at 72 h,[8],137 ng/mL
same,concentration at 72 h,[9],122 ng/mL
same,concentration at 6 h,"6 hours post-dose, bin 0-1000 ng/mL (n = 29), read-out: Plasma Concentration, Mean",334 ng/mL
same,concentration at 6 h,"6 hours post-dose, bin 0-1000 ng/mL (n = 29), read-out: Plasma Concentration, Median",286 ng/mL
same,concentration at 6 h,"6 hours post-dose, bin 1001-2000 ng/mL (n = 9), read-out: Plasma Concentration, Mean",1360 ng/mL
same,concentration at 6 h,"6 hours post-dose, bin 1001-2000 ng/mL (n = 9), read-out: Plasma Concentration, Median",1270 ng/mL
same,concentration at 6 h,"6 hours post-dose, bin >2000 ng/mL (n = 10), read-out: Plasma Concentration, Mean",2590 ng/mL
same,concentration at 6 h,"6 hours post-dose, bin >2000 ng/mL (n = 10), read-out: Plasma Concentration, Median",2420 ng/mL
same,half-life,"across the dose groups, read-out: terminal t1/2",660 to 960 min
same,half-life,"combined 350 and 525 mg group, read-out: t1/2, range",660 to 1320 min
same,Tmax,"combined 350 and 525 mg group, read-out: tmax, range",3 to 6 h
same,Vd/F,"doses ranging from 3 mg to 525 mg, read-out: volume of distribution (Vz/F)",58 to 166 L
same,Vd/F,"doses up to 175 mg, read-out: mean apparent volume of distribution (Vz/F)",~78 L
same,Tmax,"healthy volunteers, read-out: Tmax",4 to 6 h
same,half-life,"healthy volunteers, read-out: terminal t1/2 (half-life) (converted)",~900 min
same,Vd,1-compartmental model analysis of in vivo data in human,0.965 L/kg
same,clearance,"1-compartmental model analysis of in vivo data in human, read-out: CL (Human)",0.949 mL/min/kg
